{"source": "patent US8586613B2", "about": "“Pyridinium and quinolinium derivatives” (Universidad de Granada, priority 2004, dated 2013)", "key": {"[1]": {"tested_on": "HT-29 cells", "experiment": "HT-29 cell proliferation assay (Crystal Violet)", "type": "cell-based, human", "settings": "six days of treatment", "experimental": "The HT-29 cells were seeded in 24-well plates (35×10^3 cells/well) and were incubated for 24 hours. Then the cells were treated with different concentrations of ChoK inhibitors in the usual culture medium. Three days later, the wells were aspirated and both fresh medium and more amount of drug were added, and the cells were maintained for three more days. The quantification of the remaining cells in each well was carried out by means of the Crystal Violet method [Gillies, R. J., Didier, N., Denton, M. Anal. Biochem. 159, 109-113 (1986)], with some modifications [Hernández-Alcoceba, R., Saniger, L., Campos, J., Núñez, M. C., Khaless, F., Gallo, M. Á., Espinosa, A., Lacal, J. C. Oncogene, 15, 2289-2301 (1997)]. Briefly, the cells were washed with TD buffer and fixed with 1% glutaraldehyde for 15 minutes. After washing again with TD, the cell nuclei were coloured with 0.1% Crystal Violet for at least 30 minutes and washed three times with distilled water. The adsorbed colouring was resuspended in 10% acetic acid and the absorbance at 595 nm was determined in a spectrometer. […] This value determined by iterative curve adjustment. Two values are determined for each point of the curve, the experiment was repeated two or three times and the mean values were estimated. In the few cases in which the two values differed more than 50%, a third experiment was carried out to determine the real value. The IC50 value as a potency measurement is used to relate the biological activity of the compounds with their chemical structure."}, "[2]": {"tested_on": "MDA.MB.231 (breast cancer cell line) xenograft", "experiment": "Antitumor activity in breast xenografts (MDA.MB.231)", "type": "in vivo, Balb/c nude mice", "experimental": "(§1) Six-week-old Balb/c nude mice (Charles River) were used. The research protocol was approved by the National Biotechnology Centre (CNB) Ethics Committee and animals were maintained in accordance to the Spanish Law guidelines (12 h light/dark cycle, and ad libitum access to food and autoclaved water). Mice were inoculated s.c. in both lower flanks with 1×10^6 of MDA.MB.231 (breast cancer cell line) cells resuspended in 100 μL of serum free DMEN (Invitrogen) media. MDA.MB.231 cells were passed at 80% to 90% confluence every 2 to 3 days in DMEN (Invitrogen) supplemented with 10% fetal bovine serum (FBS, Invitrogen), to ensure exponential growth before using them for the in vivo experiments.\n(§2) Mice developing measurable subcutaneous tumors (˜0.1 cm^3) within 3 to 4 weeks were randomized to either treated or control groups (treated only with the drug vehicle). Tumor growth was monitored by measuring their size two to three times per week. Tumors were measured in two dimensions with digital calipers and tumor volume was estimated using the formula of a rational ellipse (D×d^2)/2, where D is the length of the long diameter and d is the short one. […]\nBody weight of mice was assessed once per week and tumor volumes of the untreated and treated groups were compared and analyzed using the non parametric Mann-Whitney test. […]"}, "[3]": {"molecular_target": "T1, choline kinase from Plasmodium falcifarum (Pf-ChoK) (Plasmodium falciparum, UniProt Q8IM71)", "T1 construct": "made in house; host or cells: E. coli", "T1 sequence (Q8IM71 entry or part of it)": "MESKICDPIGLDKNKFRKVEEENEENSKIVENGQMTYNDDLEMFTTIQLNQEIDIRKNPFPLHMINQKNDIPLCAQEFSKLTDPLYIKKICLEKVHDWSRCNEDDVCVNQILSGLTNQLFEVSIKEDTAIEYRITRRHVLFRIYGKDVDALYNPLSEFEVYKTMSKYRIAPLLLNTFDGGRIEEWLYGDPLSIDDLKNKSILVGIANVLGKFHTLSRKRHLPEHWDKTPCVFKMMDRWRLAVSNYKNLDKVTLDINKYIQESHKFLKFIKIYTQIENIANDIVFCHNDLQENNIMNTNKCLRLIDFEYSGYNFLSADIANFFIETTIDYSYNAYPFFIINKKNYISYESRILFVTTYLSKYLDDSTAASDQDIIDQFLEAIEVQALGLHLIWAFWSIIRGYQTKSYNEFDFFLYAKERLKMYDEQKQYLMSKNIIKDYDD", "experiment": "Sensitivity of Plasmodium falcifarum choline kinase (expressed in E. coli)", "type": "biochemical", "settings": "read-out: IC50 (inhibition of Pf-ChoK)", "experimental": "The sensitivity of choline kinase of the parasite Plasmodium falcifarum (Pf) was also tested with choline kinase inhibitors. Choline kinase from Pf was expressed in E. coli (FIG. 3) and tested for activity (data not shown). Optimal conditions were established and the IC50 determined."}, "[4]": {"tested_on": "MCF10-A (non-transformed epithelial cells)", "experiment": "MTT cell viability, panel of cell lines", "type": "cell-based", "settings": "Non-tumorogenic, 72 h", "experimental": "(§3) This effect can be observed in Table 1, where sensitivity to RSM932A of non-transformed MCF-10A epithelial cells is compared to 12 different human-tumor-derived cells from different tissues, including breast, lung, colon and pancreatic tumor cell lines.\n(§4) The experimental conditions were as follows: cells were seeded at 10,000 cells per well into 96-well plates (BD, Falcon, Bioscience, San Jose, Calif., USA). Exponentially growing cells for 24 hours were exposed to different concentrations (quadruplicates for each concentration) of the compound for 72 hours. The colorimetric assay MTT (3-(4,5-dimethylthiazol-2-yl)-2,5-diphenyltetrazolium bromide was used to assess cell viability. The reaction correlates with absorbance read at 595 nm in a VersaMax Microplate Reader (Molecular Devices, Sunnyvale, Calif., USA). The IC50 (50% inhibitory concentration of a substance) is quantified by plotting the log OD (optical density) versus log drug concentration. IC50: Concentration of the compound that causes 50% growth inhibition with respect to control cells without drug."}, "[5]": {"tested_on": "H460 (human NSCLC cells) xenograft", "experiment": "Antitumor activity in lung xenografts (H460)", "type": "in vivo, Balb/c nude mice", "experimental": "as §1, with “H460 (human NSCLC cells)” for “MDA.MB.231 (breast cancer cell line)”, “RPMI” for “DMEN”, “H460” for “MDA.MB.231”, “in” for “them for”\nas §2, with “(˜0.15-0.2” for “(˜0.1”, “2” for “3 to 4”\nBody weight of mice was assessed once per week and tumor volumes between the untreated and treated groups were compared and analyzed using the non parametric Mann-Whitney test. […]"}, "[6]": {"tested_on": "HT-29", "experiment": "MTT cell viability, panel of cell lines", "type": "cell-based, human", "settings": "HT-29, Colon, 72 h", "experimental": "as §3, §4"}, "[7]": {"tested_on": "MDA.MB.231", "experiment": "MTT cell viability, panel of cell lines", "type": "cell-based, human", "settings": "MDA.MB.231, Breast, 72 h", "experimental": "as §3, §4"}, "[8]": {"tested_on": "HCT-116", "experiment": "MTT cell viability, panel of cell lines", "type": "cell-based, human", "settings": "HCT-116, Colon, 72 h", "experimental": "as §3, §4"}, "[9]": {"tested_on": "H510", "experiment": "MTT cell viability, panel of cell lines", "type": "cell-based, human", "settings": "H510, Lung, 72 h", "experimental": "as §3, §4"}, "[10]": {"tested_on": "H460", "experiment": "MTT cell viability, panel of cell lines", "type": "cell-based, human", "settings": "H460, Lung, 72 h", "experimental": "as §3, §4"}, "[11]": {"tested_on": "SkBr-3", "experiment": "MTT cell viability, panel of cell lines", "type": "cell-based, human", "settings": "SkBr-3, Breast, 72 h", "experimental": "as §3, §4"}, "[12]": {"tested_on": "MDA.MB.468", "experiment": "MTT cell viability, panel of cell lines", "type": "cell-based, human", "settings": "MDA.MB.468, Breast, 72 h", "experimental": "as §3, §4"}, "[13]": {"tested_on": "T47D", "experiment": "MTT cell viability, panel of cell lines", "type": "cell-based, human", "settings": "Breast, 72 h", "experimental": "as §3, §4"}, "[14]": {"tested_on": "Mia.PaCa.2", "experiment": "MTT cell viability, panel of cell lines", "type": "cell-based, human", "settings": "Mia.PaCa.2, Pancreas, 72 h", "experimental": "as §3, §4"}, "[15]": {"tested_on": "H1299", "experiment": "MTT cell viability, panel of cell lines", "type": "cell-based, human", "settings": "H1299, Lung, 72 h", "experimental": "as §3, §4"}, "[16]": {"tested_on": "DLD-1", "experiment": "MTT cell viability, panel of cell lines", "type": "cell-based, human", "settings": "DLD-1, Colon, 72 h", "experimental": "as §3, §4"}, "[17]": {"tested_on": "SW620", "experiment": "MTT cell viability, panel of cell lines", "type": "cell-based, human", "settings": "SW620, Colon, 72 h", "experimental": "as §3, §4"}}}
{"compound": "CN(c1ccc(Cl)cc1)c1cc[n+](Cc2ccc(-c3ccc(C[n+]4ccc(N(C)c5ccc(Cl)cc5)c5ccccc54)cc3)cc2)c2ccccc12.[Br-].[Br-]", "note": "[Compound 7, 1,1′-(biphenyl-4,4′-diylmethylene)bis[4-(4-chloro-N-methylanilino)quinolinium]dibromide]", "values": [{"measurement": "IC50", "setting": "[1]", "value": 1200, "unit": "nM"}, {"measurement": "Loss Weight", "setting": "[2]; MDA.MB.231 xenograft mice, 1st day vs last day of treatment (24 g to 22.2 g)", "value": 7.5, "unit": "%"}, {"measurement": "percentage of inhibition of tumor growth", "setting": "[2]; MDA.MB.231 xenograft, 5 mg/kg i.p., three days per week for three weeks, after 20 days, relative to control mice", "value": 54.5, "unit": "%"}, {"measurement": "IC50", "setting": "[3]", "value": 930, "unit": "nM"}, {"measurement": "IC50", "setting": "[4]", "value": 7.1, "unit": "µM"}, {"measurement": "Loss Weight", "setting": "[5]; H460 xenograft mice, 1st day vs last day of treatment (23.2 g to 20.8 g)", "value": 10.5, "unit": "%"}, {"measurement": "percentage of inhibition of tumor growth", "setting": "[5]; H460 xenograft, 6 mg/kg i.p., five days in a week plus a boost, after 22 days, relative to control mice", "value": 64.5, "unit": "%"}, {"measurement": "IC50", "setting": "[6]", "value": 1700, "unit": "nM"}, {"measurement": "IC50", "setting": "[7]", "value": 1300, "unit": "nM"}, {"measurement": "IC50", "setting": "[8]", "value": 1800, "unit": "nM"}, {"measurement": "IC50", "setting": "[9]", "value": 1400, "unit": "nM"}, {"measurement": "IC50", "setting": "[10]", "value": 1900, "unit": "nM"}, {"measurement": "IC50", "setting": "[11]", "value": 3.1, "unit": "µM"}, {"measurement": "IC50", "setting": "[12]", "value": 2400, "unit": "nM"}, {"measurement": "IC50", "setting": "[13]", "value": 2250, "unit": "nM"}, {"measurement": "IC50", "setting": "[14]", "value": 2300, "unit": "nM"}, {"measurement": "IC50", "setting": "[15]", "value": 1900, "unit": "nM"}, {"measurement": "IC50", "setting": "[16]", "value": 2100, "unit": "nM"}, {"measurement": "IC50", "setting": "[17]", "value": 2100, "unit": "nM"}]}
